From the supplement of paper PMC10307832

Legend:
Experiment in all cases: relative viability (nuclei count vs DMSO), 5 days (fraction); higher = more cells survive
IPA-3 + OSI-027 = compound: C1=CC=C2C(=C1)C=CC(=C2SSC3=C(C=CC4=CC=CC=C43)O)O [IPA-3] + COc1cccc2cc(-c3nc([C@H]4CC[C@H](C(=O)O)CC4)n4ncnc(N)c34)[nH]c12 [OSI-027] (partner 0.5 µM)
Method in brief: (§1)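 Cells from lung cancer lines were seeded into 1536-well plates and, one day later, dosed by pin tool. Treatments were either a single drug or a fixed dose of an anchor drug with five library-drug doses (not always all listed) in √10 steps. After 5 days, nuclei were stained in a one-step fixation (final 0.05% Triton X-100, 1% formaldehyde, 1 ug/ml Hoechst) and counted on 4× images, and relative viability is the treated-to-vehicle nuclei ratio, as the median of duplicate plates.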

IPA-3 + Decitabine = compound: C1=CC=C2C(=C1)C=CC(=C2SSC3=C(C=CC4=CC=CC=C43)O)O [IPA-3] + Nc1ncn([C@H]2C[C@H](O)[C@@H](CO)O2)c(=O)n1 [Decitabine] (partner 2 µM)
Method in brief: as §1

Doramapimod + Decitabine = compound: Cc1ccc(-n2nc(C(C)(C)C)cc2NC(=O)Nc2ccc(OCCN3CCOCC3)c3ccccc23)cc1 [Doramapimod] + Nc1ncn([C@H]2C[C@H](O)[C@@H](CO)O2)c(=O)n1 [Decitabine] (partner 2 µM)
Method in brief: as §1

RAF265 + Foretinib = compound: Cn1c(Nc2ccc(C(F)(F)F)cc2)nc2cc(Oc3ccnc(-c4ncc(C(F)(F)F)[nH]4)c3)ccc21 [RAF265] + COc1cc2c(Oc3ccc(NC(=O)C4(C(=O)Nc5ccc(F)cc5)CC4)cc3F)ccnc2cc1OCCCN1CCOCC1 [Foretinib] (partner 0.25 µM)
Method in brief: as §1

Cell Line	relative viability (IPA-3 + OSI-027; first compound 0.2 µM)	relative viability (IPA-3 + OSI-027; first compound 0.6325 µM)	relative viability (IPA-3 + OSI-027; first compound 2 µM)	relative viability (IPA-3 + OSI-027; first compound 6.325 µM)	relative viability (IPA-3 + OSI-027; first compound 20 µM)	relative viability (IPA-3 + Decitabine; first compound 0.2 µM)	relative viability (IPA-3 + Decitabine; first compound 0.6325 µM)	relative viability (IPA-3 + Decitabine; first compound 2 µM)	relative viability (IPA-3 + Decitabine; first compound 6.325 µM)	relative viability (IPA-3 + Decitabine; first compound 20 µM)	relative viability (Doramapimod + Decitabine; first compound 0.02 µM)	relative viability (Doramapimod + Decitabine; first compound 0.06325 µM)	relative viability (Doramapimod + Decitabine; first compound 0.2 µM)	relative viability (Doramapimod + Decitabine; first compound 0.6325 µM)	relative viability (Doramapimod + Decitabine; first compound 2 µM)	relative viability (RAF265 + Foretinib; first compound 0.01 µM)	relative viability (RAF265 + Foretinib; first compound 0.03162 µM)	relative viability (RAF265 + Foretinib; first compound 0.1 µM)	relative viability (RAF265 + Foretinib; first compound 0.3162 µM)	relative viability (RAF265 + Foretinib; first compound 1 µM)
NCI-H2405	0.651	0.644	0.669	0.691	0.666	0.797	0.737	0.723	0.721	0.746	0.758	0.713	0.703	0.861	0.685	1.03	1.01	1	0.935	0.701
NCI-H3122	1.13	0.951	0.948	1.11	0.896	0.517	0.467	0.362	0.459	0.474	0.427	0.445	0.394	0.491	0.415	0.963	1	1	0.953	0.635
PC-3 [JPC-3]	0.8	0.774	0.76	0.655	0.735	0.849	0.837	0.813	0.779	0.855	0.834	0.816	0.857	0.888	0.766	1.04	1.07	1.12		0.595
PC-14	1.54	0.778	0.749	0.766	1.17	0.29	0.152	0.226	0.187	0.144	0.261	0.22	0.215	0.277	0.197	0.969	1.01	0.928		0.817
RERF-LC-KJ	0.668	0.563	0.58	0.554	0.619	0.896	0.639	0.701	0.704	0.689	0.733	0.669	0.663	0.684	0.669	0.867	0.85	0.891	0.759	0.774
SK-LU-1	0.361	0.347	0.341	0.345	0.354	0.708	0.497	0.658	0.689	0.651	0.636	0.617	0.662	0.637	0.592	0.889	0.615	0.491	0.411	0.318
SK-MES-1	0.722	0.581	0.635	0.521	0.423	0.455	0.394	0.423	0.296	0.31	0.329	0.355	0.356	0.424	0.315	1.04	0.932	0.816	0.529	0.369
SW 900	0.759	0.611	0.6	0.556	0.409	0.501	0.453	0.49	0.415	0.476	0.355	0.439	0.36	0.405	0.437	1.01	0.835	0.748	0.769	0.546
SW 1573	0.867	0.385	0.528	0.634	0.183	0.7	0.452	0.485	0.56	0.121	0.506	0.388	0.615	0.575	0.366	1	1.01	0.887	0.792	0.732
